Measured values published in article PMC9913288, “Suppression of Cancer Cell Stemness and Drug Resistance via MYC Destabilization by Deubiquitinase USP45 Inhibition with a Natural Small Molecule” (Cancers, 2023).

Target: T1, USP45 (Homo sapiens, UniProt Q70EL2)
T1 construct: USP45-His purified from E. coli BL21, biotinylated
T1 sequence (Q70EL2 1-814): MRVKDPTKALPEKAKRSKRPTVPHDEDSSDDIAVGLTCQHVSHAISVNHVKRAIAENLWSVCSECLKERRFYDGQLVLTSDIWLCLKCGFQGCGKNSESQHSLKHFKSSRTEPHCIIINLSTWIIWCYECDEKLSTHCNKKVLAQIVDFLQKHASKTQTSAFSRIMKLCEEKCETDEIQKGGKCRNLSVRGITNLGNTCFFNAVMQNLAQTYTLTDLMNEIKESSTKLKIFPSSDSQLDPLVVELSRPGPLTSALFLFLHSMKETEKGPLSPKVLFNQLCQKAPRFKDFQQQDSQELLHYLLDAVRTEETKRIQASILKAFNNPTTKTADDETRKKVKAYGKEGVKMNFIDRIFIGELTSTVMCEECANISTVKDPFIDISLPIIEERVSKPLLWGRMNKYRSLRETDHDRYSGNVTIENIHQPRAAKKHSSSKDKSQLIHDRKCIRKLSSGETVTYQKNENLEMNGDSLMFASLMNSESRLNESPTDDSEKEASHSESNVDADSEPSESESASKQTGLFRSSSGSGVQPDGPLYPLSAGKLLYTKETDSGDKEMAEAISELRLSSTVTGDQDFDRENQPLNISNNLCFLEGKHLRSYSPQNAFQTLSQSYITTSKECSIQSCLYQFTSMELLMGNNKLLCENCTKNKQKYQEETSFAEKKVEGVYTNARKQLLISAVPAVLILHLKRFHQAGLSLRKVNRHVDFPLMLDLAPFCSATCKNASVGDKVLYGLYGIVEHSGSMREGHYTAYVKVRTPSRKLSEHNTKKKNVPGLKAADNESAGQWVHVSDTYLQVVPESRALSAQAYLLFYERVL
Experiment: BLI (OCTET K2) with purified biotinylated USP45
Format: binding

SMILES: COc1c(O)cc2oc3cc(O)c(CC=C(C)C)c(O)c3c(=O)c2c1CC=C(C)C [AMG, α-mangostin]
- Kd: 19.3 µM
